Results on 19 compounds are retold here after PMC9126595, “Identification of 3-(piperazinylmethyl)benzofuran derivatives as novel type II CDK2 inhibitors: design, synthesis, biological evaluation, and in silico insights” (Journal of Enzyme Inhibition and Medicinal Chemistry, 2022).

The target of data set [1] is T1, CDK2 (Homo sapiens, UniProt P24941).
T1 construct: purchased Promega V2971
In words: CDK2 kinase inhibitory assay (Promega CDK2 Kinase Enzyme System). Type of data set: biochemical. Particulars: mean ± SD of three separate experiments. The source says:
The experimental details for the performed biological assays; Sulforhodamine B (SRB) cytotoxicity, CDK2 kinase, Annexin V-FITC apoptosis, and cell cycle assays[86–89] were mentioned in the Supporting Information. […]
4. CDK Kinase Inhibitory Activity
CDK2 Kinase Enzyme System (catalog No. V2971) (Promega, Milan, Italy), according to the
manufacturer’s instructions. […]

Data set [2] concerns Panc-1 pancreatic cancer cell line. In words: SRB anti-proliferative assay, Panc-1. Particulars: read-out: IC50 Panc-1. Type of data set: cell-based, human. The text has this:
(§1) The experimental details for the performed biological assays; Sulforhodamine B (SRB) cytotoxicity, CDK2 kinase, Annexin V-FITC apoptosis, and cell cycle assays[86–89] were mentioned in the Supporting Information.
(§2) 1. Anti-proliferative activity assay
(§3) The examined human pancreatic cancer (Panc-1), breast cancer (MCF-7), and lung carcinoma (A549) cell lines have been obtained from American Type Culture Collection (ATCC). The cells were maintained in Dulbecco's modified Eagle's medium (DMEM) supplemented with 10% heat inactivated fetal calf serum (GIBCO), penicillin (100 U/ml) and streptomycin (100 µg/ml) at 37 °C in humidified atmosphere containing 5% CO2. […]
(§4) a 25 cm2 flask in 5 ml of culture medium. The anti-proliferative activity of the tested 3-(piperazinylmethyl)benzofurans (9, 11, 13, 15 and 17) was measured in vitro using the Sulfo-Rhodamine-B stain (SRB) assay. Briefly, cells were plated out in 96-well microtiter plate (0.5X10^4 cells/well) and incubated for 24 h before treatment with the tested hybrids to allow cells to attach to the bottom of the well of the plate. Tested benzofurans were dissolved in DMSO at 1 mg/ml immediately before use and diluted to the appropriate volume just before addition to the cell culture. Different concentrations of tested benzofurans, and Staurosporine were added to the cells (three wells were prepared for each individual dose). Cells were incubated with the hybrids for 48 […]
(§5) After 48 h cells were fixed, washed, and stained for 30 min with 0.4% (w/v) SRB dissolved in 1% acetic acid. Unbound dye was removed by four washes with 1% acetic acid, and attached stain was recovered with Tris-EDTA buffer. Color intensity was measured in an ELISA reader. The relation between percent of surviving fraction and log drug concentration is plotted to get the survival curve for each cell line. […]

Data set [3] relates to MCF-7 breast cancer cell line. In words: SRB anti-proliferative assay, MCF-7. Type of data set: cell-based, human. Particulars: read-out: IC50 MCF-7.
Excerpt: as §1, §2, §3, §4, §5

Data set [4] concerns A-549 lung carcinoma cell line. In words: SRB anti-proliferative assay, A-549. Type of data set: cell-based, human. The settings on record: read-out: IC50 A-549.
Excerpt: as §1, §2, §3, §4, §5

Data set [5] deals with non-tumorigenic human lung fibroblast MRC-5 cell line. In words: Normal cell cytotoxicity, MRC-5. Type of data set: cell-based. On the procedure: To test the safety of the newly synthesised compounds and their selectivity towards cancer cells, their cytotoxic activity was tested on non-tumorigenic human lung fibroblast MRC-5 cell line.
Setting [6] is: Homo sapiens, PANC-1, SRB, 48 h, mean of 3 separate experiments.
The mark [7] stands for this setting: Homo sapiens, MCF7, SRB, 48 h, mean of 3 separate experiments.
Setting [8] is: Homo sapiens, A549, SRB, 48 h, mean of 3 separate experiments.
[9] abbreviates: MRC5, normal lung fibroblasts, mean of three separate experiments, read-out: IC50 MRC-5.
The mark [10] stands for this setting: SRB, 48 h, mean of 3 separate experiments.

Like-named read-outs stand apart in the source and are kept apart here.

As to `O=C(NN=Cc1ccccc1)c1oc2ccccc2c1CN1CCN(c2ccccc2)CC1` [Compound 13a], the IC50 in data set [1] was 0.152 ± 0.0077 µM; in data set [2] (setting [6]), 169 ± 9.41 µM; in data set [3] (setting [7]) it was 118 ± 8.39 µM; in data set [4] (setting [8]) it was 109 ± 7.59 µM; in data set [5] (setting [9]), more than 500 µM.

In the case of `CC(=O)c1ccc(NC(=S)NNC(=O)c2oc3ccccc3c2CN2CCN(c3ccccc3)CC2)cc1` [Compound 9i], the half-maximal inhibitory concentration (IC50) in data set [1] is 0.0894 ± 0.00462 µM; in data set [2] (setting [6]), 19.2 ± 1.27 µM; in data set [3] (setting [7]), 27.3 ± 2.05 µM; in data set [4] (setting [8]) it was 29.2 ± 2.06 µM; in data set [5] (setting [9]) it was 142 ± 11 µM.

As to `O=C(NN=C1CCCc2ccccc21)c1oc2ccccc2c1CN1CCN(c2ccccc2)CC1` [Compound 17], the IC50 in data set [1] came out at 0.0656 ± 0.0033 µM; in data set [2] (setting [6]) it was 80.4 ± 4.83 µM; in data set [3] (setting [7]) it was 82.8 ± 5.43 µM; in data set [4] (setting [8]), 58.9 ± 1.88 µM; in data set [5] (setting [9]) it was 284 ± 15 µM.

On to `O=C(NNC(=S)Nc1ccccc1)c1oc2ccccc2c1CN1CCN(c2ccccc2)CC1` [Compound 9a], for which the melting point was 198 to 200 °C. Besides, in data set [1], half-maximal inhibition (IC50) was put at 0.322 ± 0.016 µM. For the same compound, in data set [2] (setting [6]), the IC50 came to 86.9 ± 4.17 µM. Also, in data set [3] (setting [7]), the 50% inhibitory concentration (IC50) turned out to be 118 ± 6.02 µM. Besides, the IC50 in data set [4] (setting [8]) was determined as 85.5 ± 6.21 µM. The IC50 in data set [5] (setting [9]) is 406 ± 21 µM.

As to `COc1ccc(C(C)=NNC(=O)c2oc3ccccc3c2CN2CCN(c3ccccc3)CC2)cc1` [Compound 15b], the 50% inhibitory concentration (IC50) in data set [1] was determined as 0.127 ± 0.0065 µM; in data set [2] (setting [6]), 25.4 ± 1.7 µM; in data set [3] (setting [7]), 44.4 ± 2.96 µM; in data set [4] (setting [8]), 28.5 ± 1.92 µM; in data set [5] (setting [9]), 160 ± 10 µM.

For the compound `COc1cccc(C=NNC(=O)c2oc3ccccc3c2CN2CCN(c3ccccc3)CC2)c1` [Compound 13b], the melting point was 176 to 178 °C. For the same compound, in data set [1], it took 0.0656 ± 0.00331 µM to reach half-maximal inhibition (IC50). Further, the concentration for half-maximal inhibition (IC50) in data set [2] (setting [6]) amounted to 1.04 ± 0.08 µM. The half-maximal inhibitory concentration (IC50) in data set [3] (setting [7]) came to 2.98 ± 0.18 µM. Further, the IC50 in data set [4] (setting [8]) is 1.71 ± 0.1 µM. Also, the IC50 in data set [5] (setting [9]) was 18.1 ± 1.3 µM.

For the compound `O=C(NNC(=S)Nc1cccc(Cl)c1)c1oc2ccccc2c1CN1CCN(c2ccccc2)CC1` [Compound 9f], the half-maximal inhibitory concentration (IC50) worked out at 0.119 ± 0.0061 µM in data set [1]; 126 ± 7.06 µM in data set [2] (setting [6]); 127 ± 7.56 µM in data set [3] (setting [7]); 127 ± 7.61 µM in data set [4] (setting [8]); 391 ± 25 µM in data set [5] (setting [9]).

For the compound `N.N.[Cl][Pt][Cl]` [Cisplatin, reference compound], the IC50 in data set [2] (setting [10]) came out at 6.98 ± 0.35 µM; in data set [3] (setting [10]), 5.45 ± 0.4 µM; in data set [4] (setting [10]), 6.72 ± 0.37 µM.

Compound `COc1ccc(C=NNC(=O)c2oc3ccccc3c2CN2CCN(c3ccccc3)CC2)cc1` [Compound 13c] came in with a melting point of 181 to 182 °C. The compound further registered a 50% inhibitory concentration (IC50) in data set [1] of 0.0526 ± 0.0027 µM. Further, the 50% inhibitory concentration (IC50) in data set [2] (setting [6]) came to 4.47 ± 0.29 µM. For the same compound, the half-inhibitory concentration (IC50) in data set [3] (setting [7]) is 13.6 ± 0.94 µM. Besides, in data set [4] (setting [8]), the half-maximal inhibitory concentration (IC50) stood at 14.4 ± 1.02 µM. The IC50 in data set [5] (setting [9]) turned out to be 121 ± 9 µM.

For `CC(=NNC(=O)c1oc2ccccc2c1CN1CCN(c2ccccc2)CC1)c1ccccc1` [Compound 15a], the melting point lay within 191 to 193 °C. This compound also yielded a half-maximal inhibitory concentration (IC50) in data set [1] of 0.333 ± 0.017 µM. Also, the IC50 in data set [2] (setting [6]) stood at 120 ± 5.77 µM. For the same compound, the IC50 in data set [3] (setting [7]) is 123 ± 6.82 µM. Further, the IC50 in data set [4] (setting [8]) came to 98.4 ± 5.61 µM. Besides, the IC50 in data set [5] (setting [9]) came to 452 ± 28 µM.

Take `O=C(NNC(=O)c1oc2ccccc2c1CN1CCN(c2ccccc2)CC1)Nc1ccccc1` [Compound 11a]: the half-maximal inhibitory concentration (IC50) amounted to 56.8 ± 2.94 µM in data set [2] (Homo sapiens, PANC-1, 48 h); 55.9 ± 3.18 µM in data set [3] (Homo sapiens, MCF7, 48 h); 49.3 ± 3.27 µM in data set [4] (Homo sapiens, A549, 48 h); 178 ± 13 µM in data set [5] (MRC5, read-out: IC50 MRC-5).

Regarding `COc1ccc(NC(=O)NNC(=O)c2oc3ccccc3c2CN2CCN(c3ccccc3)CC2)cc1` [Compound 11c], the IC50 was 61.5 ± 4.52 µM in data set [2] (Homo sapiens, PANC-1, 48 h); 76.9 ± 5.21 µM in data set [3] (Homo sapiens, MCF7, 48 h); 57 ± 2.33 µM in data set [4] (Homo sapiens, A549, 48 h); 246 ± 13 µM in data set [5] (MRC5, read-out: IC50 MRC-5).

`COc1ccc(NC(=S)NNC(=O)c2oc3ccccc3c2CN2CCN(c3ccccc3)CC2)cc1` [Compound 9c] returned a melting point of 182 to 184 °C. Moreover, in data set [1], the half-inhibitory concentration (IC50) is 0.214 ± 0.011 µM. Also, the half-maximal inhibitory concentration (IC50) in data set [2] (setting [6]) worked out at 103 ± 6.21 µM. Also, in data set [3] (setting [7]), the half-maximal inhibitory concentration (IC50) was 86.6 ± 5.28 µM. The 50% inhibitory concentration (IC50) in data set [4] (setting [8]) amounted to 72.2 ± 5.36 µM. The IC50 in data set [5] (setting [9]) is 261 ± 20 µM.

In the case of `O=C(NNC(=S)Nc1cccc(F)c1)c1oc2ccccc2c1CN1CCN(c2ccccc2)CC1` [Compound 9d], the IC50 worked out at 0.0777 ± 0.041 µM in data set [1]; 27.2 ± 1.87 µM in data set [2] (setting [6]); 53.9 ± 3.57 µM in data set [3] (setting [7]); 40.4 ± 2.74 µM in data set [4] (setting [8]); 166 ± 14 µM in data set [5] (setting [9]).

The compound `O=C(NNC(=S)Nc1ccc(F)cc1)c1oc2ccccc2c1CN1CCN(c2ccccc2)CC1` [Compound 9e] showed a melting point of 218 to 220 °C. The concentration for half-maximal inhibition (IC50) in data set [1] was 0.065 ± 0.0033 µM. The IC50 in data set [2] (setting [6]) turned out to be 3.29 ± 0.2 µM. The IC50 in data set [3] (setting [7]) stood at 5.89 ± 0.43 µM. Further, the half-inhibitory concentration (IC50) in data set [4] (setting [8]) was determined as 5.24 ± 0.4 µM. For the same compound, the IC50 in data set [5] (setting [9]) was found to be 52 ± 3 µM.

As for `COc1ccc(NC(=O)NNC(=O)c2oc3ccccc3c2CN2CCN(c3ccccc3)CC2)cn1` [Compound 11e], the IC50 in data set [2] (Homo sapiens, PANC-1, 48 h) came to 54.6 ± 4.22 µM; in data set [3] (Homo sapiens, MCF7, 48 h) it was 48.7 ± 3.54 µM; in data set [5] (MRC5, read-out: IC50 MRC-5), 244 ± 18 µM.

`COc1cccc(NC(=S)NNC(=O)c2oc3ccccc3c2CN2CCN(c3ccccc3)CC2)c1` [Compound 9b]: the concentration for half-maximal inhibition (IC50) in data set [1] is 0.0849 ± 0.0043 µM; in data set [2] (setting [6]) it was 61.9 ± 3.48 µM; in data set [3] (setting [7]), 98.5 ± 4.47 µM; in data set [4] (setting [8]) it was 80.4 ± 4.87 µM; in data set [5] (setting [9]) it was 289 ± 19 µM.

`COc1cccc(NC(=O)NNC(=O)c2oc3ccccc3c2CN2CCN(c3ccccc3)CC2)c1` [Compound 11b]: the IC50 in data set [2] (Homo sapiens, PANC-1, 48 h) is 10.2 ± 0.86 µM; in data set [3] (Homo sapiens, MCF7, 48 h) it was 15.2 ± 1.34 µM; in data set [4] (Homo sapiens, A549, 48 h), 13.8 ± 1.04 µM; in data set [5] (MRC5, read-out: IC50 MRC-5), 121 ± 10 µM.

In turn, `O=C(NNC(=S)Nc1ccc(Cl)cc1)c1oc2ccccc2c1CN1CCN(c2ccccc2)CC1` [Compound 9g] came in with a melting point of 197 to 199 °C. This compound came in with a concentration for half-maximal inhibition (IC50) in data set [1] of 0.0698 ± 0.0036 µM. For the same compound, the IC50 in data set [2] (setting [6]) stood at 122 ± 6.34 µM. Moreover, in data set [3] (setting [7]), the IC50 amounted to 121 ± 8.39 µM. The IC50 in data set [4] (setting [8]) is 111 ± 6.38 µM. Also, in data set [5] (setting [9]), the 50% inhibitory concentration (IC50) was 342 ± 30 µM.
